Results reported in US20040029138A1, “Global electronic medicine response profile testing network” (priority 2003, published 2004).
Structures can show the parent of a compound that is named as a salt.

How the values were obtained:
[1] = system: subjects with IBS; test: Double blind, placebo controlled clinical trials of alosetron for IBS, response stratified by 5HTT genotype; type: in vivo, human; details: for Relief of IBS symptoms (subjects achieving relief): 12 weeks treatment
Procedure: Genetic samples were obtained from 219 female human subjects enrolled in clinical trials of alosetron for the treatment of IBS. Using PCR technology as is known in the art, an insertion/deletion genetic marker was assayed in the 5-hydroxytryptamine-transporter gene (5HTT gene). The alleles were labeled as “del” (deletion) or “ins” (insertion) resulting in three possible genotypes (del/del; del/ins or ins/ins). The subjects' response to alosetron in the clinical trial setting was reviewed and correlated with genotype. In the double blind, placebo controlled clinical trials; subjects received 12 weeks of treatment with either alosetron or a placebo. A favorable response to alosetron was when a subject reported relief of IBS symptoms during six weeks of the twelve-week trial. The incidence of various other effects, including constipation, was also recorded. The response of subjects to treatment with alosetron in the clinical trial was stratified according to genotype.

[2] = system: patients with Irritable Bowel Syndrome (IBS); details: double blind, placebo controlled studies; cited from earlier work

Question: With `Cc1[nH]cnc1CN1CCc2c(c3ccccc3n2C)C1=O` [alosetron, Alosetron hydrochloride] as the compound, how does the “Relief of IBS symptoms (subjects achieving relief)” value ([1]; del/del 5HTT genotype subjects (21/31), relief during six weeks of the twelve-week trial) read?
Answer: Its value is 68%.

Question: What about the “Constipation reported (incidence)” value ([1]; del/del subjects (n=31), 4 subjects) of the same compound?
Answer: The value was 13%.

Question: What about the “Relief of IBS symptoms (subjects achieving relief)” value ([1]; del/ins 5HTT genotype subjects (21/33)) of the same compound?
Answer: The value was 64%.

Question: What about the “Constipation reported (incidence)” value ([1]; del/ins subjects (n=33), 10 subjects) of the same compound?
Answer: The value was 30%.

Question: And the “Effectiveness versus placebo in producing relief of IBS symptoms” value ([1]; in each of the three 5HTT genotypes)?
Answer: The value was “more effective than placebo”.

Question: What about the “Relief of IBS symptoms (subjects achieving relief)” value ([1]; ins/ins 5HTT genotype subjects (22/38)) of the same compound?
Answer: The value was 58%.

Question: And the “Constipation reported (incidence)” value ([1]; ins/ins subjects (n=38), 8 subjects)?
Answer: The value was 21%.

Question: What about the “Constipation reported (incidence)” value ([1]; total group of subjects receiving alosetron (n=102)) of the same compound?
Answer: The value was 21%.

Question: And the “Effect on pain and bowel function in IBS patients” value [2]?
Answer: The value was “reduce pain and improve bowel function”.
